Test results as given in the CheMixHub viscosity set.
Values joined by “and” are separate entries in the source; they are usually repeats but may differ in a detail not shown here. Identical values can stand only once.

Experiment: xn = mol fraction of the nth substance listed

Brc1ccc2[n-]cnc2c1.CCCCCCCCCCCCCC[P+](CCCCCC)(CCCCCC)CCCCCC + COCCOCCOCCOCCOC
viscosity [mPa·s], 100 kPa
Conditions | 293.15 K | 298.15 K | 303.15 K | 308.15 K | 313.15 K | 318.15 K | 323.15 K
x1 = 0.362 | 62 | – | – | – | – | – | –
x1 = 0.522 | 164 | 125 | 98 | 77 | 63 | 51 | –
x1 = 0.654 | 301 | 222 | 167 | 129 | 101 | 81 | 66
x1 = 0.782 | 631 | 449 | 326 | 243 | 185 | 143 | 114
x1 = 0.862 | 972 | 675 | 481 | 351 | 261 | 199 | 155
x1 = 0.898 | 1190 | 813 | 572 | 413 | 304 | 230 | 177

C1CCOC1 + CC#N
viscosity [mPa·s], 101 kPa
Conditions | x2 = 0.1633 | x2 = 0.3052 | x2 = 0.4295 | x2 = 0.5394 | x2 = 0.6372 | x2 = 0.7249 | x2 = 0.8039 | x2 = 0.8754 | x2 = 0.9405
298.15 K | 0.4419 | 0.4236 | 0.4075 | 0.3932 | 0.3808 | 0.3701 | 0.3611 | 0.3539 | 0.3481
308.15 K | 0.4066 | 0.3875 | 0.3701 | 0.355 | 0.3425 | 0.3321 | 0.3242 | 0.3184 | 0.3145
318.15 K | 0.3683 | 0.3497 | 0.334 | 0.3202 | 0.3089 | 0.3001 | 0.2938 | 0.2901 | 0.2879

CC(C)=O + CN(C)C=O
298.15 K, 101 kPa
Conditions | viscosity [mPa·s]
x2 = 0.0367 | 0.32
x2 = 0.09776 | 0.343
x2 = 0.136 | 0.369
x2 = 0.2182 | 0.378
x2 = 0.394 | 0.457
x2 = 0.4912 | 0.499
x2 = 0.6429 | 0.565
x2 = 0.8008 | 0.646

CC1COC(=O)O1 (centres undefined) + CS(C)=O
308.15 K, 101 kPa
Conditions | viscosity [mPa·s]
x2 = 0.0506 | 2.025
x2 = 0.1139 | 1.973
x2 = 0.2014 | 1.907
x2 = 0.2976 | 1.842
x2 = 0.382 | 1.794
x2 = 0.4759 | 1.746
x2 = 0.5376 | 1.719
x2 = 0.6343 | 1.684
x2 = 0.7176 | 1.659
x2 = 0.7898 | 1.645
x2 = 0.8643 | 1.64
x2 = 0.9376 | 1.639

c1ccc2ccccc2c1 + CC(=O)O
viscosity
Conditions | 303.15 K | 308.15 K | 313.15 K | 318.15 K | 323.15 K
101 kPa, x1 = 0.06774 | 1.187 mPa·s | 1.093 mPa·s | 1.01 mPa·s | 0.9386 mPa·s | 0.8751 mPa·s
101 kPa, x1 = 0.116 | – | 1.108 mPa·s | 1.024 mPa·s | 0.951 mPa·s | 0.8838 mPa·s
101.33 kPa, x1 = 0.06774 | 1.187 mPa·s | 1.093 mPa·s | 1.01 mPa·s and 1.01 mPa·s | 0.9386 mPa·s | 0.8751 mPa·s
101.33 kPa, x1 = 0.08923 | – | – | 1.023 mPa·s | – | –
101.33 kPa, x1 = 0.116 | – | – | 1.024 mPa·s | – | –
101.33 kPa, x1 = 0.12 | – | 1.108 mPa·s | 1.024 mPa·s | 0.951 mPa·s | 0.8838 mPa·s
101.33 kPa, x1 = 0.1443 | – | – | 1.049 mPa·s | – | –

CCCc1ccccc1 + CCC(=O)O
308.15 K, 101.33 kPa
Conditions | viscosity [mPa·s]
x2 = 0.0799 | 0.7011
x2 = 0.1548 | 0.7021
x2 = 0.2233 | 0.7031
x2 = 0.275 | 0.7037
x2 = 0.411 | 0.7084
x2 = 0.519 | 0.7218
x2 = 0.6192 | 0.7357
x2 = 0.7099 | 0.753
x2 = 0.7906 | 0.7717
x2 = 0.8664 | 0.8012
x2 = 0.9357 | 0.8334
